In the CheMixHub viscosity set:

Experiment: xn = mol fraction of the nth substance listed

CCCCCCC(C)O (stereo unspecified) + Brc1ccccc1
viscosity [mPa·s], 101 kPa
Details	298.15 K	303.15 K
x2 = 0.0495	5.76	4.559
x2 = 0.1184	4.748	3.795
x2 = 0.1814	4.027	3.25
x2 = 0.2506	3.367	2.769
x2 = 0.2943	3.034	2.532
x2 = 0.3711	2.576	2.178
x2 = 0.4297	2.285	1.961
x2 = 0.5077	1.983	1.738
x2 = 0.5834	1.766	1.554
x2 = 0.6524	1.587	1.418
x2 = 0.7315	1.41	1.275
x2 = 0.8025	1.3	1.174
x2 = 0.8722	1.192	1.093
x2 = 0.9483	1.107	1.03

CCCCCCC(C)O (stereo unspecified) + C1CCCCC1
303.15 K, 101.33 kPa
Details	viscosity [mPa·s]
x1 = 0.0999	0.9208
x1 = 0.2048	1.086
x1 = 0.303	1.317
x1 = 0.3982	1.601
x1 = 0.4667	1.847
x1 = 0.5235	2.072
x1 = 0.5347	2.124
x1 = 0.6961	2.908
x1 = 0.7992	3.516
x1 = 0.899	4.161

c1c[nH]cn1 + CC(=O)O
101 kPa, x1 = 0.5
Details	viscosity [mPa·s]
303.15 K	54
323.15 K	20

NCCNCCNCCN + CC(C)(N)CO
viscosity [mPa·s], 101 kPa
Details	x1 = 0.0971	x1 = 0.2071	x1 = 0.289	x1 = 0.3787	x1 = 0.4776	x1 = 0.5872	x1 = 0.7092	x1 = 0.8458	x1 = 0.9205
303.15 K	93.54	86.24	80.73	74.33	67.05	58.76	49.22	38.21	32.14
313.15 K	45.15	42.38	40.21	37.61	34.58	30.81	26.45	21.3	18.55
323.15 K	23.64	22.83	22.02	20.95	19.54	17.81	15.76	13.05	11.61

CCCCCCCCCC(=O)O + CC(C)[C@@H]1CC[C@@H](C)C[C@H]1O
viscosity [mPa·s]
Details	293.15 K	298 K	298.15 K	303.15 K	308.15 K	313.15 K	318.15 K	323.15 K
100 kPa, x1 = 0.333	28.37	–	21.15	16.15	12.59	10	8.08	6.63
100 kPa, x1 = 0.4	24.68	–	18.85	14.7	11.68	9.43	7.73	6.42
100 kPa, x1 = 0.5	22	–	17.5	13.5	11	9	7.5	6.3
101 kPa, x2 = 0.333	–	16.3	–	–	–	–	–	–

c1ccncc1 + CC(O)CO
101 kPa
Details	viscosity [mPa·s]
293.15 K, x1 = 0.2999	15.55
303.15 K, x1 = 0.8	1.425
308.15 K, x1 = 0.7001	1.795
318.15 K, x1 = 0.4	3.855

c1ccncc1 + CCC(C)=O
100 kPa
Details	viscosity [mPa·s]
308.15 K, x1 = 0.1006	0.3835
313.15 K, x1 = 0.597	0.5265
323.15 K, x1 = 0.4004	0.4095
